The values that follow come from patent US5776892A, “Anti-inflammatory peptides” (Curative Health Services, Inc., priority 1994, dated 1998).

Assay [1] has as its system neutrophils. The experiment in a line: Neutrophil chemotaxis to f-Met-Leu-Phe (Neuroprobe chamber, fluorescence 530 nm). The conditions noted are these: 15 min pre-exposure; read at 1 hr; FIG. 3. Type of assay: cell-based. As for the experimental part:
The ability of CT-112 (SEQ. ID NO: 1) to inhibit chemotaxis of neutrophils in response to a variety of agents was assessed using Neuroprobe chemotaxis chambers. For these assays, neutrophils were resuspended in Hank's balanced salt solution with Ca^2+ and Mg^2+ to give a 5×10^6 cells/ml suspension after the cells were labeled with 1',7'-bis(2-carboxyethyl)-5-(6)-carboxyfluorescein. The neutrophils were exposed to CT-112 (SEQ. ID NO: 1) for approximately 15 min prior to addition to the chemotaxis chambers. CT-112 (SEQ. ID NO: 1) was present in both the top and bottom of the chambers, and the chemoattractant, either f-Met-Leu-Phe, leukotriene B4 or interleukin-8, was added to the bottom of chamber. Cells which had migrated through the membrane were determined by fluorescence at 530 nm at 1 hr after initiation of the assay.

Assay [2] relates to type-II collagen-induced arthritis. Format: in vivo, mouse. The method, then:
Mice (DBA/1, 10-12 weeks old, Jackson Laboratories) were randomly assigned to one of 3 groups […]. CT-112 (SEQ. ID NO: 1) was prepared for injection by dissolving in sterile PBS. CT-112 (SEQ. ID NO: 1) was administered daily according to the following schedule: a) Control animals (0.1 ml of sterile PBS) (7 mice); b) Low dose CT-112 (0.1 ml sterile PBS containing 0.25 mg CT-112 at 10 mg/kg) (8 mice); and c) High dose CT-112 (0.1 ml sterile PBS containing 2.5 mg of CT-112 at 100 mg/kg) (8 mice). Three days after initial dosing with CT-112 (SEQ. ID NO: 1), all mice were injected intradermally at the base of the tail with 100 μg of bovine type-II collagen in Freund's complete adjuvant. Mice were monitored daily for the onset of disease, and weighed twice weekly with overall health status noted. Arthritis-affected animals were clinically assessed 5 times per week until 10 weeks post-immunization. Paw measurements were taken 3 times per week. Mice lacking signs of arthritis 10 weeks post-immunizationwere considered disease-free. All mice were pre-bled prior to the start of the trial, subsequently again at 2 and 4 weeks post-immunization, again at the onset of CIA, and finally at the termination of the study. Sera were separated and stored at -80° C. ELISA assays were performed to determine anti-collagen antibody concentrations. Spleen and lymph nodes were removed at sacrifice, and single cell suspensions prepared therefrom. Mitogen responses to Con A and LPS, as well as antigen-specific responses to type-II collagen, were determined. Appropriate statistical comparisons (Chi square, Student's T-test and non-parametric median comparisons) were performed using SPSS/PC software to assess the influence of CT-112 (SEQ. ID NO: 1) at both low and high doses on the incidence, onset, severity and progression of collagen-induced arthritis, the antibody response to collagen, T-cell and B-cell mitogen responses, and T-cell specific responses to type-II collagen.

Where two headings read alike, the source gives them in different places. No end group written: not given here.

As to “TTSQVRPR [CT-112, octapeptide derived from platelet factor 4]”, the “chemotactic migration of neutrophils to f-Met-Leu-Phe” value in assay [1] is given as “effectively inhibited”. The “anti-collagen antibody reduction in serum” value in assay [2] (4 wks post-immunization, high dose group, p=0.028, FIG. 14) is reported as “statistically significant”. In addition, in assay [2] (both high and low doses, FIG. 13), the “effects on synovitis and pannus (histopathology)” value is on record as “not significant”. Further, the “disease-induced loss of joint architecture (histopathology)” value in assay [2] (both high and low doses, p≤0.05, FIG. 13) was “significantly reducing”. Further, the “spleen cell response to Con A and to LPS” value in assay [2] (cells from treated mice) is listed as “neither immunosuppression nor immunoactivation”. Further, in assay [2] (high dose, 100 mg/kg daily), the “final incidence of CIA” value worked out at 50%. For the same sequence, the Maximum paw swelling entry in assay [2] (low and high dose) is given as “not influenced”. In assay [2] (low dose, 10 mg/kg daily), the “final incidence of CIA” value is given as 62.5% and the “involved paws in remission at the conclusion of the trial” value came to 25%. Besides, in assay [2] (low dose, 10 mg/kg daily, p=0.035 vs control, FIG. 11), the “number of involved paws” value is given as “significantly fewer paws”.
